Molecules are shown by their SMILES.

This test concerns the target T1, human TGR5 (Homo sapiens, UniProt Q8TDU6).
T1 construct: expressed in transfected cells; host or cells: HEK293
T1 sequence (Q8TDU6 1-330): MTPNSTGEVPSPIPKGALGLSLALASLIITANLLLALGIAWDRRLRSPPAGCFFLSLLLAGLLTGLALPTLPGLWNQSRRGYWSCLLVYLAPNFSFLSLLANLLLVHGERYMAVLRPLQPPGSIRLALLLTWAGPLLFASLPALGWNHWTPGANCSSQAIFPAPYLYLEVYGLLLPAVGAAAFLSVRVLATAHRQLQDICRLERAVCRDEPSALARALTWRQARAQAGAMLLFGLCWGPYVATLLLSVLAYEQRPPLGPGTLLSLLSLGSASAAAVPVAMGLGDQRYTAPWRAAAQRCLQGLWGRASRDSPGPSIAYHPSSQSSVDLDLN
Put plainly: Cell-based TGR5 assay (cAMP generation, HTRF). To be noted: HEK293 cells stably transfected with human TGR5; cAMP by HTRF; 30 minutes at 37° C.; read-out: pEC50 Human TGR5 (converted). Summed up:
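Read-out was HTRF detection of cAMP, converted to concentration via a standard curve and fitted (3-parameter logistic) for pEC50 and maximal response. Agonist stimulation used HEK293 cells stably transfected with human TGR5, incubated 30 min at 37° C in IBMX-containing buffer at 0.05 nM to 10 μM compound.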
Regarding `CC(CCCC(=O)N(CCC(N)=O)C[C@H](O)[C@@H](O)[C@H](O)[C@H](O)CO)c1ccc(Cl)c(CNC2(c3cnccc3-c3ccccc3OC3CC3)CC2)c1` (stereo partly drawn) [Compound I-335, N-(2-carbamoylethyl)-5-{4-chloro-3-[({1-[4-(2-cyclopropoxyphenyl)pyridin-3-yl]cyclopropyl}amino)methyl]phenyl}-N-[(2S,3R,4R,5R)-2,3,4,5,6-pentahydroxyhexyl]hexanamide], the EC50 is 126 to 1000 nM.
Then `O=C(CCCCc1cc(Cl)c(COC2(c3cnccc3-c3ccccc3OC3CC3)CC2)cc1Cl)NCCOCCOCCOCCNC(=O)CCCCc1cc(Cl)c(COC2(c3cnccc3-c3ccccc3OC3CC3)CC2)cc1Cl` [Compound I-90, N,N′-(((oxybis(ethane-2,1-diyl))bis(oxy))bis(ethane-2,1-diyl))bis(5-(2,5-dichloro-4-((1-(4-(2-cyclopropoxyphenyl)pyridin-3-yl)cyclopropoxy)methyl)phenyl)pentanamide)], with 126 to 1000 nM; and `O=C([C@@H](O)[C@@H](O)[C@H](O)[C@@H](O)CO)N(CCCSc1ccc(Cl)c(CNC2(c3cnccc3-c3ccccc3OC3CC3)CC2)c1)C1CCOCC1` [Compound I-528, (2S,3S,4R,5S)-N-[3-({4-chloro-3-[({1-[4-(2-cyclopropoxyphenyl)pyridin-3-yl]cyclopropyl}amino)methyl]phenyl}sulfanyl)propyl]-2,3,4,5,6-pentahydroxy-N-(oxan-4-yl)hexanamide], with 126 to 1000 nM.
As for `Cc1ccc(C(C)CCCC(=O)N(CCC(N)=O)C[C@H](O)[C@@H](O)[C@H](O)[C@H](O)CO)cc1CNC1(c2cnccc2-c2ccccc2OC2CC2)CC1` (stereo partly drawn) [Compound I-359, N-(2-carbamoylethyl)-5-{3-[({1-[4-(2-cyclopropoxyphenyl)pyridin-3-yl]cyclopropyl}amino)methyl]-4-methylphenyl}-N-[(2S,3R,4R,5R)-2,3,4,5,6-pentahydroxyhexyl]hexanamide], the EC50 was 126 to 1000 nM.
Then `O=C(COC1CCN(S(=O)(=O)c2ccc(Cl)c(COC3(c4cnccc4-c4ccccc4OC4CC4)CC3)c2)CC1)NC[C@H](O)[C@@H](O)[C@H](O)[C@H](O)CO` [Compound I-444, 2-({1-[4-chloro-3-({1-[4-(2-cyclopropoxyphenyl)pyridin-3-yl]cyclopropoxy}methyl)benzenesulfonyl]piperidin-4-yl}oxy)-N-[(2S,3R,4R,5R)-2,3,4,5,6-pentahydroxyhexyl]acetamide], with less than 100 nM; and `O=C([C@@H](O)[C@@H](O)[C@H](O)[C@@H](O)CO)N(CCCCO)CCCSc1ccc(Cl)c(COC2(c3cnccc3-c3ccccc3OC3CC3)CC2)c1` [Compound I-519, (2S,3S,4R,5S)-N-(3-{[4-chloro-3-({1-[4-(2-cyclopropoxyphenyl)pyridin-3-yl]cyclopropoxy}methyl)phenyl]sulfanyl}propyl)-2,3,4,5,6-pentahydroxy-N-(4-hydroxybutyl)hexanamide], with 126 to 1000 nM.
As to `O=C1CCCN1CCCN(CCCSc1ccc(Cl)c(CNC2(c3cnccc3-c3ccccc3OC3CC3)CC2)c1)C(=O)[C@@H](O)[C@@H](O)[C@H](O)[C@@H](O)CO` [Compound I-529, (2S,3S,4R,5S)-N-[3-({4-chloro-3-[({1-[4-(2-cyclopropoxyphenyl)pyridin-3-yl]cyclopropyl}amino)methyl]phenyl}sulfanyl)propyl]-2,3,4,5,6-pentahydroxy-N-[3-(2-oxopyrrolidin-1-yl)propyl]hexanamide], the EC50 was 126 to 1000 nM.
As to `CN(CCCCNC(=O)NC[C@H](O)[C@@H](O)[C@H](O)[C@H](O)CO)S(=O)(=O)c1ccc(C(F)(F)F)c(CNC2(c3cnccc3-c3ccccc3OC3CC3)CC2)c1` [Compound I-468, 1-(4-{N-methyl3-[({11-[4-(2-cyclopropoxyphenyl)pyridin-3-yl]cyclopropyl}amino)methyl]-4-(trifluoromethyl)benzenesulfonamido}butyl)-3-[(2S,3R,4R,5R)-2,3,4,5,6-pentahydroxyhexyl]urea], the EC50 was 126 to 1000 nM.
With `O=C(CCCSc1ccc(Cl)c(COC2(c3cnccc3-c3ccccc3OC3CC3)CC2)c1)N(CCCCCO)C[C@H](O)[C@@H](O)[C@H](O)[C@H](O)CO` [Compound I-684, 4-f{[4-chloro-3-({1-[4-(2-cyclopropoxyphenyl)pyridin-3-yl]cyclopropoxy}methyl)phenyl]sulfanyl}-N-(5-hydroxypentyl)-N-[(2S,3R,4R,5R)-2,3,4,5,6-pentahydroxyhexyl]butanamide], the EC50 is 126 to 1000 nM.
Take `Clc1cc(Cl)cc(COC2(c3cnccc3-c3ccccc3OC3CC3)CC2)c1` [Compound I-56, 4-(2-cyclopropoxyphenyl)-3-{1-[(3,5-dichlorophenyl)methoxy]cyclopropyl}pyridine]: the EC50 was 1260 to 10000 nM.
Then `CC(=O)NS(=O)(=O)c1ccc(Cl)c(COC2(c3cnccc3-c3ccccc3OC3CC3)CC2)c1` [Compound I-729, N-[[4-chloro-3-([1-[4-(2-cyclopropoxyphenyl)pyridin-3-yl]cyclopropoxy]methyl)benzene]sulfonyl]acetamide], with 1260 to 10000 nM.
Turning to `CC(CCCC(=O)N(CCS(=O)(=O)N1CCOCC1)C[C@H](O)[C@@H](O)[C@H](O)[C@H](O)CO)c1ccc(Cl)c(CNC2(c3cnccc3-c3ccccc3OC3CC3)CC2)c1` (stereo partly drawn) [Compound I-262, 5-(4-chloro-3-(((1-(4-(2-cyclopropoxyphenyl)pyridin-3-yl)cyclopropyl)amino)methyl)phenyl)-N-(2-(morpholinosulfonyl)ethyl)-N-((2S,3R,4R,5R)-2,3,4,5,6-pentahydroxyhexyl)hexanamide], the EC50 was less than 100 nM.
On to `CC(C)(CC(=O)O)CC(=O)N(CCCCc1cc(Cl)c(COC2(c3cnccc3-c3ccccc3OC3CC3)CC2)cc1Cl)C[C@H](O)[C@@H](O)[C@H](O)[C@H](O)CO` [Compound I-196, 4-({4-[2,5-dichloro-4-({1-[4-(2-cyclopropoxyphenyl)pyridin-3-yl]cyclopropoxy}methyl)phenyl]butyl}[(2S,3R,4R,5R)-2,3,4,5,6-pentahydroxyhexyl]carbamoyl)-3,3-dimethylbutanoic acid], for which the EC50 is 126 to 1000 nM.
Consider `Fc1ccccc1-c1ccncc1C1(OCc2cc(Cl)ccc2Cl)CC1` [Compound I-50, 3-{1-[(2,5-dichlorophenyl)methoxy]cyclopropyl}-4-(2-fluorophenyl)pyridine], for which the EC50 is 1260 to 10000 nM.
Then `Cc1ccc(Cl)c(CNC2(c3cnccc3-c3ccccc3OC3CC3)CC2)c1` [Compound I-33, N-[(2-chloro-5-methylphenyl)methyl]-1-[4-(2-cyclopropoxyphenyl)pyridin-3-yl]cyclopropan-1-amine], with less than 100 nM; and `CC(=O)N(CCSc1ccc(Cl)c(COC2(c3cnccc3-c3ccccc3OC3CC3)CC2)c1)C[C@H](O)[C@@H](O)[C@H](O)[C@H](O)CO` [Compound I-505, N-(2-{[4-chloro-3-({1-[4-(2-cyclopropoxyphenyl)pyridin-3-yl]cyclopropoxy}methyl)phenyl]sulfanyl}ethyl)-N-[(2S,3R,4R,5R)-2,3,4,5,6-pentahydroxyhexyl]acetamide], with less than 100 nM; and `Cc1ccc(C(C)CCCC(=O)N(CCCO)C[C@H](O)[C@@H](O)[C@H](O)[C@H](O)CO)cc1CNC1(c2cnccc2-c2ccccc2OC2CC2)CC1` (stereo partly drawn) [Compound I-358, 5-{3-[({1-[4-(2-cyclopropoxyphenyl)pyridin-3-yl]cyclopropyl}amino)methyl]-4-methylphenyl}-N-(3-hydroxypropyl)-N-[(2S,3R,4R,5R)-2,3,4,5,6-pentahydroxyhexyl]hexanamide], with 126 to 1000 nM.
For the molecule `O=C(CCCSc1ccc(Cl)c(COC2(c3cnccc3-c3ccccc3OC3CC3)CC2)c1)N(CCO)C[C@H](O)[C@@H](O)[C@H](O)[C@H](O)CO` [Compound I-660, 4-{[4-chloro-3-({1-[4-(2-cyclopropoxyphenyl)pyridin-3-yl]cyclopropoxy}methyl)phenyl]sulfanyl}-N-(2-hydroxyethyl)-N-[(2S,3R,4R,5R)-2,3,4,5,6-pentahydroxyhexyl]butanamide], the EC50 is 126 to 1000 nM.
For `O=C(NCCCCc1cc(Cl)c(COC2(c3cnccc3-c3ccccc3OC3CC3)CC2)cc1Cl)[C@@H](O)[C@@H](O)[C@H](O)[C@@H](O)CO` (stereo in doubt) [Compound I-185, (2S,3S,4R,5S)-N-{4-[2,5-dichloro-4-({1-[4-(2-cyclopropoxyphenyl)pyridin-3-yl]cyclopropoxy}methyl)phenyl]butyl}-2,3,4,5,6-pentahydroxyhexanamide], the EC50 was less than 100 nM.
As for `O=C1CCCN1CCCN(CCCCSc1ccc(Cl)c(CNC2(c3cnccc3-c3ccccc3OC3CC3)CC2)c1)C(=O)[C@@H](O)[C@@H](O)[C@H](O)[C@@H](O)CO` [Compound I-554, (2S,3S,4R,5S)-N-[4-({4-chloro-3-[({1-[4-(2-cyclopropoxyphenyl)pyridin-3-yl]cyclopropyl}amino)methyl]phenyl}sulfanyl)butyl]-2,3,4,5,6-pentahydroxy-N-[3-(2-oxopyrrolidin-1-yl)propyl]hexanamide], the EC50 is 126 to 1000 nM.
On to `CC(CO)Oc1ccccc1-c1ccncc1C1(NCc2cc(Cl)ccc2Cl)CC1` (stereo not drawn) [Compound I-20, 2-{2-[3-(1-{[(2,5-dichlorophenyl)methyl]amino}cyclopropyl)pyridin-4-yl]phenoxy}propan-1-ol], for which the EC50 was 126 to 1000 nM.

Values taken from patent US12084472B2 (Ardelyx, Inc., priority 2015, dated 2024).
